The values that follow come from PMC11221360 (Molecular psychiatry, 2023).

The subject of data set [1] is rats. The data set can be described thus: Catalepsy score. In kind it is in vivo, rat.
Data set [2] deals with mice. Description: Psychomotor sensitization, repeated injections in open-field chambers. As to conditions: for psychomotor sensitization: ip, three days, (R)-MTD 2, 5, 10, (R,S)-MTD 4, 10, 20, (S)-MTD 20, 30, 40 mg/kg. The class given is in vivo, mouse.
The test system of a further data set is NMDARs. As to conditions: ref [10], cited from earlier work.
In data set [3] the test system is rats. Description: Intravenous self-administration. The conditions noted are these: for acquisition of IVSA in dose finding experiments: rats, (R)-MTD at 50 μg/kg/infusion, (S)-MTD even at high unit doses; for shape of IVSA dose-response / unit dose with peak infusion rates in IVSA dose response: trained rats. The class given is in vivo, rat.
Data set [4] deals with rats. The data set can be described thus: Hotplate analgesia. In kind it is in vivo, rat.
Data set [5] has as its system mice. Description: Acute locomotor activity. The class given is in vivo, mouse. The conditions noted are these: for effect on locomotion / most effective dose for locomotor activation (inverted U): sc; for effect on locomotion: after 60 minutes of habituation, (S)-MTD up to 100 mg/kg.
For data set [6], the system named is extracellular dopamine in rat VTA. Description: In vivo microdialysis, perfusion into VTA, somatodendritic dopamine release. As to conditions: for effect on extracellular dopamine: local perfusion, (S)-MTD up to 100 μM.
The target in another data set is SERT (Homo sapiens, UniProt P31645). Description: Receptor and enzyme competitive screen. In kind it is binding. As to conditions: 100 nM.
SERT, sequence (P31645 whole entry, species assumed): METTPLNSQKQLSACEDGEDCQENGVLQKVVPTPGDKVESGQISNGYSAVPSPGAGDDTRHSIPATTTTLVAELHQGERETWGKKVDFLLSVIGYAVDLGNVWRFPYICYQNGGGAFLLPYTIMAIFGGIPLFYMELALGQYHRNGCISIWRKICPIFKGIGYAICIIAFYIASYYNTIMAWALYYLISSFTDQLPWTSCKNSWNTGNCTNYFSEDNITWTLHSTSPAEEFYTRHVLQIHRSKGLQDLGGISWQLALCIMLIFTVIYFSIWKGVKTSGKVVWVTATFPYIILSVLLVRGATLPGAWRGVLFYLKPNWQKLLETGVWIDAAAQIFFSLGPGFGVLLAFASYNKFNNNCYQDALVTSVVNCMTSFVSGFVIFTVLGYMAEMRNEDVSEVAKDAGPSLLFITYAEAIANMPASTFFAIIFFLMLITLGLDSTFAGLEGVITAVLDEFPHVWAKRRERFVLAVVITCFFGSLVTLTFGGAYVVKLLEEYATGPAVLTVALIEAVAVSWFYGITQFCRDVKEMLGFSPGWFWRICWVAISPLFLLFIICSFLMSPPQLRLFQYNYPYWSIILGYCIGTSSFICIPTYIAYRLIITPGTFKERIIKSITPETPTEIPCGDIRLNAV

With `CCC(=O)C(C[C@H](C)N(C)C)(c1ccccc1)c1ccccc1` [(S)-MTD, (S)-methadone], in the data set with rats [1] (up to 100 mg/kg), the “catalepsy score agonist profile” value is on record as “partial agonist”. Moreover, the “effect of pretreatment on (R)-MTD-induced (10 mg/kg, ip) sensitization” value in the data set with mice [2] ((S)-MTD 10 or 30 mg/kg) is recorded as “did not prevent psychomotor sensitization”. Moreover, the psychomotor sensitization entry with mice [2] is “failed to show sensitization at any dose”. Moreover, the “affinity for the MOR, times greater than affinity for the NMDAR” value with NMDARs ([15]) is on record as ~ 300 times. Besides, the “affinity at NMDARs” value with NMDARs was 2.6 to 7.4 µM. The “IVSA in (R)-MTD-trained rats switched to (S)-MTD” value in the data set on rats [3] (500 μg/kg/infusion) was “reliable IVSA”. Besides, the “cumulative dose consumed at the highest dose in IVSA” value with rats [3] ((R)-MTD-trained rats switched to (S)-MTD) is listed as ~ 30 mg/kg. In the data set with rats [3], the “acquisition of IVSA in dose finding experiments” value is recorded as “never acquired IVSA” and the “shape of IVSA dose-response” value is “no evidence of dose response”. Also, in the data set on rats [4], the hotplate agonist profile entry is reported as “full agonistic activity”. Also, the “effect on locomotor-stimulating effect of (R)-MTD (10 mg/kg, sc)” value with mice [5] ((S)-MTD 10, 30 mg/kg sc, 15 min before (R)-MTD) is recorded as “dose-dependently counteracted”. Also, in the data set with mice [5], the effect on locomotion result is “did not produce any significant locomotor-activating effects”. In data set [6] (co-perfusion, (S)-MTD 100 μM), the “effect on (R)-MTD (10 μM)-induced dopamine release” value is reported as “completely counteracted”. Also, in data set [6], the “effect on extracellular dopamine” value was “did not induce any significant effect”.
Turning to `CCC(=O)C(CC(C)N(C)C)(c1ccccc1)c1ccccc1` (racemic) [(R,S)-MTD, (R,S)-methadone], in the data set on rats [1], the “cataleptic ED50 (%MPE)” value is recorded as 2.1 mg/kg and the “dose at which maximal cataleptic effects were observed” value was determined as 10 mg/kg. Further, the psychomotor sensitization entry in the data set on mice [2] was “failed to show sensitization at any dose”. In addition, in the data set with rats [3], the “shape of IVSA dose-response” value is “inverted-U shaped dose-response curve” and the “unit dose with peak infusion rates in IVSA dose response” value was determined as 0.05 mg/kg. In addition, in the data set with rats [4], the “hotplate ED50 (%MPE)” value stood at 1.2 mg/kg and the hotplate agonist profile result is “full agonistic activity”. For the same molecule, in the data set with mice [5], the “most effective dose for locomotor activation (inverted U)” value came to 10 mg/kg and the effect on locomotion result is reported as “increased locomotion”.
With `CCC(=O)C(C[C@@H](C)N(C)C)(c1ccccc1)c1ccccc1` [(R)-MTD], the “inhibition of binding at SERT” value on SERT is 68%. Also, in the data set with rats [1], the “cataleptic ED50 (%MPE)” value is 0.9 mg/kg and the “dose at which maximal cataleptic effects were observed” value is 3 mg/kg. Moreover, the psychomotor sensitization entry with mice [2] was “produced psychomotor sensitization at 10 mg/kg”. Also, the “maximum consumed at the highest dose in IVSA” value in the data set with rats [3] (rats exposed to (R)-MTD, dose finding) is ~ 2 mg/kg. In the data set on rats [3], the “acquisition of IVSA in dose finding experiments” value was “readily self-administered”, the “shape of IVSA dose-response” value was “inverted-U shaped dose-response curve” and the “unit dose with peak infusion rates in IVSA dose response” value worked out at 0.025 mg/kg. Besides, in the data set with rats [4], the “hotplate ED50 (%MPE)” value was 0.5 mg/kg and the hotplate agonist profile result is listed as “full agonistic activity”. In the data set on mice [5], the “most effective dose for locomotor activation (inverted U)” value is 3 mg/kg and the effect on locomotion result is given as “increased locomotion”. In addition, in data set [6], the “effect on extracellular dopamine” value is “concentration-dependent increase in extracellular dopamine”.
